# Measurements: patent publication US20220193447A1, “METHODS FOR MODULATION OF AND SENSITIZATION TO SERINE AND GLYCINE LIMITATION” (Faeth Therapeutics, Inc., priority 2020, published 2022)
# Where a SMILES comes first, the peptide text is derived from it. The star is where a group is joined. Cbz = O=C(OCc1ccccc1)*
# B1: murine form of cytokine IFNγ: murine cytokine IFNγ, a canonical activator of IDO1 (protein, UniProt P01580 23-155, looked up)
# Interferon gamma: HGTVIESLESLNNYFNSSGIDVEEKSLFLDIWRNWQKDGDMKILQSQIISFYLRLFEVLKDNQAISNNISVIESHLITTFFSNSKAKKDAFMSIAKFEVNNPQVQRQAFNELIRVVHQLLPESSLRKRKRSRC
# Columns and labels:
# [1] = system: IDO1 expression; test: Immunoblotting of IDO1 in human pancreatic cancer cells; type: cell-based; conditions: for IDO1 protein levels: 2D or 3D culture, MG132 20 μM 16 h, bafilomycin A1 100 nM
# [2] = system: ATF-4 response; test: Western blots of SSP enzymes and ATF-4 response; type: cell-based, human; conditions: MG-132 10 μM
# Experimental: Protein lysates were processed in RIPA-buffer supplemented with phosphatase inhibitor cocktail and complete protease inhibitors. Lysates were separated using precast NuPAGE 4-12% Bis-Tris Protein gels and transferred to nitrocellulose membranes. Following incubation with primary antibodies, appropriate secondary antibodies were used to detect the proteins. Westerns scanned using the Odyssey CLx or visualized using ECL chemiluminescence detection kits.
# Cells were grown for 24 hours in −SG medium or CM and treated with 10 μM PH755 diluted in DMSO or DMSO alone. To evaluate protein synthesis, puromycin (final concentration: 90 μM) was added to each well 10 minutes prior harvesting the cells for western blot analysis, except in the negative control well. Where indicated, cells grown in CM medium were treated with cycloheximide (10 μg/mL) for the last 5 hours providing a control for translation inhibition. Incorporation of puromycin into newly synthesized proteins was assessed by Western blot using an anti-puromycin antibody. To assess the accumulation of short-lived proteins in response to proteasome inhibition, cells grown in −SG medium or CM plus or minus 10 μM PH755 for 24 hours were treated for the last 6 hours with the proteasome inhibitor MG-132 (10 μM) before harvesting the cells for western blot analysis.
# [3] = system: KPC cells; test: KPC cell proliferation with or without serine; type: cell-based, mouse; conditions: epacadostat 1 μM, −Serine medium, 5 days
# Experimental: KPC cells (tumor cells derived from a pancreatic tumor of a Kras' p53″^t genetically engineered mouse) were seeded into 24-well plates and allowed to adhere overnight. […] Cell number was recorded every 24 h for 5 days. A time zero plate was used to calculate the starting cell number.
# [4] = system: HT-29 and HCT116 cells; conditions: supplement alone (1 mM sodium formate or 0.4 mM glycine)
# Experimental: Cells (2×10^4 to 3×10^4 cells/well depending on the cell lines) were plated in 24-well plates in their regular medium. […] For the counting step, cells were trypsinized, suspended in PBS-EDTA, and counted with a CASY Model TT Cell Counter. Relative cell number at each time point was calculated based on the number of cells measured before the medium change.
# [5] = system: IDO1 expression; test: Immunoblotting of IDO1 in KPC cells; type: cell-based, mouse
molecule,measurement,setting,value
CC(C)(C)c1nc2c3cc[nH]c(=O)c3c3cc(F)ccc3c2[nH]1 [JAKi],up-regulation of IDO1 protein levels in AI-grown cells,"[1]; CFPAC-1 or HPAF-II cells, JAKi 1 μM, 16 h",blocked
CC(C)C[C@@H](C=O)NC(=O)[C@H](CC(C)C)NC(=O)[C@H](CC(C)C)NC(=O)OCc1ccccc1 [MG-132] (Cbz-Leu-Leu-Leu-aldehyde),ATF-4 protein level,[2]; cells in complete medium,strong accumulation of ATF-4
same,"ATF-4 protein levels and ASNS, PSAT expression",[2]; cells in −SG medium plus PH755,no restoration of ATF-4 protein levels
same,IDO1 protein levels,[1],no effect on IDO1 protein levels
"CO/C1=C\C(C)=C\[C@@H](C)[C@@H](O)[C@@H](C)C/C(C)=C/C=C/[C@H](OC)[C@@H]([C@@H](C)[C@@H](O)[C@H](C)[C@@]2(O)C[C@@H](O)[C@H](C)[C@@H](C(C)C)O2)OC1=O [bafilomycin, bafilomycin A1]",IDO1 protein levels,[1],no effect on IDO1 protein levels
NS(=O)(=O)NCCNc1nonc1C(=NO)Nc1ccc(F)c(Br)c1 [epacadostat],antiproliferative effect of serine starvation,[3],enhances the antiproliferative effect
"O=C[O-].[Na+] [formate, sodium formate]",growth of −SG plus PH755 treated cells,[4],did not restore growth
NCC(=O)O [glycine],growth of −SG plus PH755 treated cells,[4],did not restore growth
"human form of IFNγ: human cytokine IFNγ, canonical activator of IDO1",IDO1 expression,"[1]; panel of human pancreatic cancer cells, IFNγ 1 ng/ml, 24 h",consistently increased IDO1 expression
same,IDO1 expression,"[5]; murine cells, human form of IFNγ",did not impact IDO1 expression in murine cells
B1,IDO1 expression,"[5]; KPC cells, murine IFNγ 1 ng/ml, 24 h",increased IDO1 expression in vitro
